Patent publication US20250114313A1, “OLIGO-BENZAMIDE ANALOGS AND THEIR USE IN CANCER TREATMENT” (BOARD OF REGENTS, THE UNIVERSITY OF TEXAS SYSTEM, priority 2022, published 2025)

How the values were obtained:
[1] = Evaluation of normal organs of treated mice (H&E, IHC, flow cytometry, ELISpot); assay type: in vivo
Experimental: Immunohistochemistry: Immunohistochemical studies were performed as described previously.^7 For the immunohistochemical studies, tissue sections were blocked in background sniper (Biocare Medical, RS966L) followed by overnight incubation with primary antibodies anti-Ki-67 antibody (1:1000, GeneTex cat #GTX16667 RRID:AB_422351) (link), anti-CHOP antibody (1:2000, Sigma, Cat #HPA068416), anti-PERK (phospho T982) antibody (1:150, Abcam Cat #ab192591, RRID:AB_2728666) link)), anti-phospho-eIF2α (Ser51) (1:50, Cell signaling, cs3398) and subsequent secondary antibody incubation for 60 min at room temperature. Immunoreactivity was visualized by using the DAB substrate and counterstained with hematoxylin (Vector Lab, Inc.). Percent of Ki67 positive proliferating cells was calculated in five randomly selected high-power fields (×40).
ELISpot. For ELISpot analysis of total IgM^+ and IgG^+ ASCs, Multi-Screen® filter plates (Millipore) were activated with 35% ethanol, washed with PBS, and coated with anti-IgM (SouthernBiotech, Cat. #1020-01) or anti-IgG (SouthernBiotech, Cat. #1030-01) in PBS. Single bone marrow cell suspensions were prepared, as above, and cultured at 250,000 cells/ml in RPMI 1640 medium (Invitrogen) supplemented with FBS (10% v/v, Invitrogen), penicillin-streptomycin/amphotericin B (1% v/v) and 50 μM β-mercaptoethanol (RPMI-FBS) at 37° C. for 16 h. After supernatants were removed, plates were incubated with biotinylated goat anti-mouse IgM (SouthernBiotech, Cat. #1020-08) or goat anti-mouse IgG1 (SouthernBiotech, Cat. #1070-08) Ab for 2 h and, after washing, incubated with HRP-conjugated streptavidin. Plates were developed using the Vectastain AEC peroxidase substrate kit (Vector Laboratories). The stained area in each well was quantified using the CTL ImmunoSpot software (Cellular Technology) and depicted as the number of spots for quantification
Flow cytometry: Single cell suspensions were flushed from tibia and fibula using sterile DPBS using a 10 ml syringe and 30 G needle. Red blood cells were removed by incubation with ACK lysis buffer (Lonzo) for 2 m. Bone marrow cells (2×10^6) were first stained in Hank's Buffered Salt Solution plus 0.1% BSA (HBSS-BSA) for 20 m with fixable viability dye (FVD, eFluor™ 506, eBioscience™, Cat. #50-246-097) and fluorophore-labeled mAbs to surface markers, including CD3 (APC-Cy7, Clone 17A2, BioLegend, Cat. #100221), IgD (FITC, Clone 11-26c.2a, BioLegend, Cat. #405704), CD138 (PE-Cy7, Clone 281-2, BioLegend, Cat. #142514), SCA-1 (PerCP, Clone D7, BioLegend, Cat. #108121), B220 (BV421, Clone RA3-6B2, BioLegend, Cat. #103240), in the presence of mAb Clone 2.4G2, which blocks FcγII and FcγIII receptors. After washing, cells were then fixed and permeablized by incubation for 1 h in 250 μl BD Cytofix/Cytoperm™ buffer (BD Fixation/Permeablization Kit, Cat. #554714) at 4° C. After washing twice with the BD Perm/Wash™ buffer, cells were counted again and 10^6 cells were resuspended in 100 μl of BD Cytofix/Cytoperm™ buffer for intracellular staining with anti-Igκ mAb (PE, e-Bioscience™, Clone 1871, Cat. #MKAPPA04) for 30 m. After washing with BD Perm/Wash™ buffer, cells were analyzed by LSRII (BD). FACS data were analyzed by the FlowJo® software (BD).
Animal Studies: All animal experiments were performed using UTHSA and UTSW IACUC approved protocols. For cell based xenograft tumor assays, TNBC cells (2×10^5-2×10^6) were mixed with an equal volume of matrigel and implanted in the mammary fat pads of 6-week-old female athymic nude mice as described^33. BALB/c mice were used for D2A1 syngeneic model. Once tumors reached measurable size, mice were divided into control (vehicle) and ERX-41 (10 mg/kg/oral) treatment groups. Mice bearing TNBC PDX tumors were purchased from Jackson laboratory (TM00089; TM00096; TM00098). TNBC PDX line UTPDX0001 establishment was earlier described^38. WHIM-20 ER+PDX model was purchased from Horizon Labs. OCa-PDX-38 was received from UTHSA ObGyn tissue procurement core. […]

LIPA KO SUM-159 cells = experiment: Live cell confocal imaging of ER tubule width, SUM-159 LIPA KO; assay type: cell-based, Human; details: 1 μM
Experimental: Live cell confocal and Airyscan imaging: To visualize ER structure, stable SUM-159 cell lines expressing mCherry-RAMP4 were established. pLenti-X1-hygro-mCherry-RAMP4 was purchased from Addgene (Addgene #118391; //n2t.net/addgene:118391; RRID:Addgene_118391) (via Jacob Corn).^35 The live cell images were acquired by Confocal Zeiss LSM880 Airyscan. ER tubule width was calculated by drawing 1px-wide line scans perpendicular to the long axis of individual ER tubules. In MATLAB, the peak intensity along each line scan was determined and the distance between the half maximum intensity on either side of the peak was measured. The code for this analysis is available at: //github.com/andmoo91/HalfMaxScript.

[2] = system: SUM-159 clones with LIPA KO; experiment: Live cell imaging with SYTOX Green, SUM-159 LIPA KO; assay type: cell-based, Human; details: 1 μM
Experimental: Live cell imaging: Live cell images were acquired by Lionheart FX automated microscope (BioTek). Cells were plated one day before the experiment. For cell death assay, 0.2 μM SYTOX Green was added into the plate 15 min before the experiment.

[3] = system: ERα+ breast, glioblastoma, pancreatic and ovarian cancer cell lines; experiment: CTG dose response in other cancer cell lines; assay type: cell-based
Experimental: Cell viability assays: Cells were seeded in 96-well plates (2×10^3 cells/well) one day before the treatment. Cells were treated with varying concentrations of ERX-41 or ERX-11 analogs for 3-6 days. Then effects of ERX-41 or ERX-11 analogs on cell viability were measured in triplicate or sextuplicate with multiple biological replicates using the WST-1 (Promega), MTT as previously described^33 or CellTiter-Glo 2.0 (Promega) assays.

SMILES: CC(C)COc1cc(C(=O)Nc2ccc(C(=O)N[C@H]3CC[C@H](C)CC3)cc2OCC(C)C)ccc1NC(=O)c1ccc([N+](=O)[O-])c(OCCO)c1 [ERX-41]
- bone marrow plasma cell numbers, Ig κ expression, IgM or IgG ASCs ([1]; flow cytometry and ELISpot, 1 week oral 10 mg/kg/day): did not show any significant effects
- gross histology of organs, nude mice with MDA-MB-231 xenografts ([1]; heart, lung, spleen, liver, kidney, ovary, pancreas, 30 days oral 10 mg/kg/day): no significant changes in the gross histology of multiple organs
- histology of organs, syngeneic mice with D2A1 xenografts ([1]; multiple organs including spleen): no significant histologic changes or immune infiltrates
- ER stress in normal liver or kidney tissues ([1]; oral administration, data not shown): no significant induction of ER stress
- uterus: proliferation index (Ki67), endometrial cell height, ERα expression ([1]; oral, 10 mg/kg/day): did not affect the proliferation index
- immunogenicity ([1]; syngeneic mice): not immunogenic
- ER tubule diameter in LIPA KO cells (LIPA KO SUM-159 cells): no significant changes in ER tubule diameter
- cell death in SUM-159 with LIPA KO [2]: dramatic decrease in cell death
- responsiveness of other cancer cell lines in vitro [3]: responsiveness to ERX-41 in vitro
